Reference: patent US20260231945A1, “NEMATICIDAL COMPOUNDS, THEIR COMPOSITION AND USE THEREOF” (priority 2023, published 2026)

Assays:
[1] = Stability studies: storage at room temperature and under accelerated storage condition (ATS), purity estimated by HPLC; assay type: physicochemical; conditions: properly packed material; for purity estimated by HPLC, Day 14 Condition 54° C. ± 2° C. / purity estimated by HPLC, Day Zero Condition 54° C. ± 2° C.: 54° C. ± 2° C. (accelerated storage)
Source text: The properly packed material was subjected to the conditions mentioned in the table below (Table 5).

[2] = test system: Root-knot nematodes Meloidogyne spp. juveniles (J2); test: whole plant or invertebrate; assay type: in vivo; conditions: Meloidogyne, 70-100 J2 juveniles, 22±2° C., 70±5% RH, dead/inactive counted at 24, 48, 72 and 96 hours (time of rating not stated)
Protocol: The compound to be tested (4 mg) was dissolved in 40 μl of DMSO to make 100,000 PPM concentration stock solution. […] The nematode suspension (250 μl) having 70-100 juveniles (J2) of Root-knot nematodes Meloidogyne spp. pipetted out to each cell of 24 well bioassay plate. Sterile water (1 ml) was pipetted out in fresh 2.5 ml Eppendorf micro-centrifuge tubes. The desired concentration (500 ppm) of the compound was prepared by adding stock solution in 2.5 ml Eppendorf micro-centrifuge tubes. For each treatment 4 replications were maintained. The bioassay plates were incubated at 22±2° C. and 70±5% RH in humidity chambers.

SMILES | purity estimated by HPLC, Day 14 Condition 25° C. ± 2° C. [1] | purity estimated by HPLC, Day 14 Condition 54° C. ± 2° C. [1] | purity estimated by HPLC, Day Zero Condition 25° C. ± 2° C. [1] | purity estimated by HPLC, Day Zero Condition 54° C. ± 2° C. [1] | mortality at 500 ppm [2]
N#Cc1ccc(/C=C/C=N/[C@@H](CCCNC(=N)N)C(=O)O)cc1 [Example 20, (E)-N^2-[(2E)-3-(4-cyanophenyl)prop-2-en-1-ylidene]-L-arginine] | 99.50 | 98.90 | 99.55 | 99.43 | 70 to 100%
N=C(N)NCCC[C@H](/N=C/C=C/c1ccccc1)C(=O)O [Example 9, (E)-N^2-[(2E)-3-phenylprop-2-en-1-ylidene]-L-arginine] | 99.59 | 99.64 | 99.60 | 99.63 | 70 to 100%
N=C(N)NCCC[C@H](/N=C/C=C/c1ccc2ccccc2c1)C(=O)O [Example 24, (E)-N^2-[(2E)-3-(naphthalen-2-yl)prop-2-en-1-ylidene]-L-arginine] | 98.85 | 98.90 | 98.90 | 98.75 | 50 to 69%
